Measured values from publication PMC12040169 (PLOS Biology, 2025).

Assay: in vitro
Settings: human, hela cells, % viability

**Q.** Which viability at 28.5 h, 10 µM does the source give for CCCC/C=C/c1cncc(NCc2cccc(Cl)c2)n1 [CBK065293] here?
**A.** Its viability at 28.5 h, 10 µM is 97.3%.

**Q.** For COc1ccc(Br)cc1/C=C/C(=O)NC(=S)Nc1cc(C(=O)O)ccc1Cl [CBK265564], which viability at 28.5 h, 10 µM is on record?
**A.** The viability at 28.5 h, 10 µM was 90.7%.

**Q.** Which viability at 28.5 h, 10 µM does the source give for COc1cc(OC)c(NC(=O)N2CCC(n3c(=O)[nH]c4ccccc43)CC2)cc1Cl [CBK149851] here?
**A.** Its viability at 28.5 h, 10 µM is 91.4%.

**Q.** For Cn1nc2c(c1C(=O)NCC(C)(C)N1CCCCC1)CCCC2 [CBK281878], which viability at 28.5 h, 10 µM is on record?
**A.** Its viability at 28.5 h, 10 µM is 94.4%.

**Q.** For O=C(O)c1ccc(COc2ccc3ccccc3c2/C=C2/NC(=O)N(c3ccccc3)C2=O)cc1 [CBK265124], which viability at 28.5 h, 10 µM is on record?
**A.** Its viability at 28.5 h, 10 µM is 101%.

**Q.** With COC(=O)[C@H]1CN(C(=O)c2cscn2)C[C@@H]1c1ccc(F)cc1 [CBK283785] as the molecule, how does the viability at 28.5 h, 10 µM read?
**A.** The viability at 28.5 h, 10 µM was 92.3%.

**Q.** With CC1CC(C(F)F)n2nc(C(=O)O)nc2N1 (centres unmarked) [CBK267636] as the molecule, how does the viability at 28.5 h, 10 µM read?
**A.** Its viability at 28.5 h, 10 µM is 99.7%.

**Q.** With O=C(Nc1snnc1-c1ccc(Cl)cc1)c1ccc(OC(F)(F)F)cc1 [CBK153247] as the molecule, how does the viability at 28.5 h, 10 µM read?
**A.** Its viability at 28.5 h, 10 µM is 70.5%.

**Q.** Which viability at 28.5 h, 10 µM does the source give for CN(C)C(=O)c1cccc(NC(=O)C2CCCCC2)c1 [CBK304515] here?
**A.** The viability at 28.5 h, 10 µM was 89.7%.

**Q.** With O=C1NC(=O)C(CCCCN2CCCc3ccccc32)N1 (centres unmarked) [CBK143965] as the molecule, how does the viability at 28.5 h, 10 µM read?
**A.** Its viability at 28.5 h, 10 µM is 98.3%.

**Q.** Which viability at 28.5 h, 10 µM does the source give for CC(=O)N1CCC(c2nc(Cc3cccs3)no2)C1 (centres unmarked) [CBK282998] here?
**A.** Its viability at 28.5 h, 10 µM is 108%.

**Q.** For O=C(OCCc1cccnc1)N1CCC(C(F)(F)F)CC1 [CBK200159], which viability at 28.5 h, 10 µM is on record?
**A.** The viability at 28.5 h, 10 µM was 94.9%.

**Q.** For N#CC(NS(=O)(=O)c1ccc(OC(F)(F)F)cc1)c1ccccc1 (centres unmarked) [CBK043714], which viability at 28.5 h, 10 µM is on record?
**A.** Its viability at 28.5 h, 10 µM is 97.6%.

**Q.** With Cc1cccc(NC(S)=NCc2ccccn2)c1 [CBK264174] as the molecule, how does the viability at 28.5 h, 10 µM read?
**A.** Its viability at 28.5 h, 10 µM is 104%.

**Q.** For COc1cc(CN2CCN(C3CCCCC3)CC2)cc(OC)c1OC [CBK263407], which viability at 28.5 h, 10 µM is on record?
**A.** Its viability at 28.5 h, 10 µM is 99.1%.

**Q.** With O=C(O)CCc1nc(-c2ccc3[nH]ccc3c2)no1 [CBK287070] as the molecule, how does the viability at 28.5 h, 10 µM read?
**A.** Its viability at 28.5 h, 10 µM is 99.3%.

**Q.** For CCN(CC)CCCNc1nc2ccc(O)cc2s1 [CBK023880C], which viability at 28.5 h, 10 µM is on record?
**A.** The viability at 28.5 h, 10 µM was 105%.

**Q.** For O=C(c1cccc(F)c1)N1CCC(c2n[nH]c3ncccc23)CC1 [CBK284907], which viability at 28.5 h, 10 µM is on record?
**A.** Its viability at 28.5 h, 10 µM is 109%.

**Q.** Which viability at 28.5 h, 10 µM does the source give for COc1cc(CCN2CCC(c3nc(-c4ccccc4)c4ccccn34)CC2)cc(OC)c1OC [CBK035278] here?
**A.** The viability at 28.5 h, 10 µM was 91%.

**Q.** Which viability at 28.5 h, 10 µM does the source give for O=C(O)CCc1nc2nc(-c3ccco3)cc(C(F)(F)F)n2n1 [CBK286889] here?
**A.** Its viability at 28.5 h, 10 µM is 86%.

**Q.** Which viability at 28.5 h, 10 µM does the source give for Cn1c(-c2cc(=O)c(C(=O)O)c[nH]2)n[nH]c1=O [CBK012603] here?
**A.** The viability at 28.5 h, 10 µM was 79.6%.

**Q.** Which viability at 28.5 h, 10 µM does the source give for CCOC(=O)C(C)N1C(=O)S/C(=C/c2ccc(Oc3ccc([N+](=O)[O-])cn3)cc2)C1=O (centres unmarked) [CBK265114] here?
**A.** Its viability at 28.5 h, 10 µM is 93.9%.

**Q.** For C[C@H](Nc1cncc(-c2cccc3ccccc23)n1)c1ccccc1 [CBK065654], which viability at 28.5 h, 10 µM is on record?
**A.** The viability at 28.5 h, 10 µM was 93.6%.

**Q.** With O=c1[nH]c(NCCCO)nc2sc3c(c12)CCCC3 [CBK025611] as the molecule, how does the viability at 28.5 h, 10 µM read?
**A.** Its viability at 28.5 h, 10 µM is 87.9%.

**Q.** With O=C(Nc1ccccc1C(=O)O)c1ccc(S(=O)(=O)N2CCCCC2)cc1 [CBK265174] as the molecule, how does the viability at 28.5 h, 10 µM read?
**A.** Its viability at 28.5 h, 10 µM is 103%.

**Q.** For COc1ccc(-c2nn(-c3ccccc3)cc2/C=C2/SC(=S)N(Cc3ccccc3)C2=O)c(C)c1 [CBK265107], which viability at 28.5 h, 10 µM is on record?
**A.** Its viability at 28.5 h, 10 µM is 93.7%.

**Q.** With NC(=O)c1c(NC(=O)CSc2ccc(Cl)cc2)sc2c1CCCC2 [CBK263101] as the molecule, how does the viability at 28.5 h, 10 µM read?
**A.** Its viability at 28.5 h, 10 µM is 77.7%.

**Q.** For Cc1nc(C)c(CC(=O)Nc2cccc(CN3CCCC3)c2)s1 [CBK281426], which viability at 28.5 h, 10 µM is on record?
**A.** The viability at 28.5 h, 10 µM was 105%.

**Q.** For CC(OC(=O)c1ccc2c(c1)C(=O)N(c1ccc([N+](=O)[O-])cc1)C2=O)C(=O)c1ccccc1 (centres unmarked) [CBK157061], which viability at 28.5 h, 10 µM is on record?
**A.** Its viability at 28.5 h, 10 µM is 94.3%.

**Q.** For CN(CC(=O)O)C(=O)c1ccc(Oc2cccc(Br)c2)nc1 [CBK306485], which viability at 28.5 h, 10 µM is on record?
**A.** The viability at 28.5 h, 10 µM was 90.7%.

**Q.** For O=C1NC(N2CCCC2)=NOc2nnc(Cl)cc21 [CBK024856], which viability at 28.5 h, 10 µM is on record?
**A.** Its viability at 28.5 h, 10 µM is 109%.

**Q.** Which viability at 28.5 h, 10 µM does the source give for CC(=O)N1CCc2sccc2C1c1ccccc1NCc1ccoc1 (centres unmarked) [CBK286432] here?
**A.** Its viability at 28.5 h, 10 µM is 91.6%.

**Q.** With Cc1cc(-c2cn3cc(C(=O)N4CCNCC4)nc3c(=O)n2C)c(C)o1 [CBK307325] as the molecule, how does the viability at 28.5 h, 10 µM read?
**A.** The viability at 28.5 h, 10 µM was 108%.

**Q.** With Cc1cc(C)n(C(=O)CCNS(=O)(=O)c2ccc(Cl)cc2)n1 [CBK269348] as the molecule, how does the viability at 28.5 h, 10 µM read?
**A.** The viability at 28.5 h, 10 µM was 111%.

Same assay, conditions: human, hela cells, % viability, bulk resorufin, single well

**Q.** Which viability at 28.5 h, 10 µM does the source give for CCOC(=O)N1CCC2(CC1)Oc1ccc(-c3cccc4ncccc34)cc1O2 [CBK085454] here?
**A.** The viability at 28.5 h, 10 µM was 99.8%.
